Results as given in patent US7329657B2, “Indazolyl-substituted pyrroline compounds as kinase inhibitors” (Ortho-McNeil Pharmaceutical, Inc., priority 2000, dated 2008).

What was measured:
Assay type in all cases: biochemical
[1] = molecular target: PKC γ (Homo sapiens, UniProt P05129); test: Protein Kinase C Histone-Based Assay, γ isoform; details: histone III substrate, 30 μM ATP, 10 min at 30° C.; read-out: PKC Activity (IC50 μM, Histone Based Assay) Gamma
Protocol: (§1) Compounds were evaluated for PKC selectivity using histone III as the substrate. […] The reaction was incubated for 10 min at 30° C. Reactions were terminated by TCA precipitation and spotting on Whatman P81 filters. Filters were washed in 75 mM phosphoric acid and the radioactivity quantified by liquid scintillation counting.

[2] = molecular target: PKC β-II (Homo sapiens, UniProt P05771); test: Protein Kinase C Histone-Based Assay, β-II isoform; details: histone III substrate, 30 μM ATP, 10 min at 30° C.; read-out: PKC Activity (IC50 μM, Histone Based Assay) Beta II
Chain of PKC β-II (P05771 1-673 isoform P05771-2): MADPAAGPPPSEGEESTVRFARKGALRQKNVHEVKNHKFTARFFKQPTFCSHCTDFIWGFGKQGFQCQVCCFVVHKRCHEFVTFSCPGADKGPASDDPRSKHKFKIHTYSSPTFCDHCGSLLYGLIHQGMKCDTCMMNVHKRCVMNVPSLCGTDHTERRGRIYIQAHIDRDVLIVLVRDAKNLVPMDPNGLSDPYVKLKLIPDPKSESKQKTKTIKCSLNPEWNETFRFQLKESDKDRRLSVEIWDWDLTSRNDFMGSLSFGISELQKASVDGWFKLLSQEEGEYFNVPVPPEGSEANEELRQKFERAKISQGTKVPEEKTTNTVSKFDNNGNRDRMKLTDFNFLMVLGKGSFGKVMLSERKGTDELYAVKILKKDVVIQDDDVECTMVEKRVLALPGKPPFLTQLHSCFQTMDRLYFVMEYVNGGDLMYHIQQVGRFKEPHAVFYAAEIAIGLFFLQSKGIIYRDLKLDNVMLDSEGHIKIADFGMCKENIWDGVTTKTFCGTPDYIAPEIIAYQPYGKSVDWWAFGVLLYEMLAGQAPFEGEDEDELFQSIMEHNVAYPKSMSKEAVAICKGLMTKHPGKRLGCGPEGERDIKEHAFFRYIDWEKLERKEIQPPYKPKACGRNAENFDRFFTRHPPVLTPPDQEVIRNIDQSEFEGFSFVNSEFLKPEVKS
Protocol: as §1

[3] = molecular target: PKC α (Homo sapiens, UniProt P17252); test: Protein Kinase C Histone-Based Assay, α isoform; details: histone III substrate, 30 μM ATP, 10 min at 30° C.; read-out: PKC Activity (IC50 μM, Histone Based Assay) Alpha
Protocol: as §1

[4] = molecular target: T1, recombinant rabbit GSK-3β protein (Oryctolagus cuniculus, UniProt G1T8E2); test: Glycogen Synthase Kinase-3 Assay; details: PPI-2 substrate, 33P-ATP, 90 minutes at 30° C.
T1 construct: purchased New England Biolabs
T1 sequence (G1T8E2 1-432): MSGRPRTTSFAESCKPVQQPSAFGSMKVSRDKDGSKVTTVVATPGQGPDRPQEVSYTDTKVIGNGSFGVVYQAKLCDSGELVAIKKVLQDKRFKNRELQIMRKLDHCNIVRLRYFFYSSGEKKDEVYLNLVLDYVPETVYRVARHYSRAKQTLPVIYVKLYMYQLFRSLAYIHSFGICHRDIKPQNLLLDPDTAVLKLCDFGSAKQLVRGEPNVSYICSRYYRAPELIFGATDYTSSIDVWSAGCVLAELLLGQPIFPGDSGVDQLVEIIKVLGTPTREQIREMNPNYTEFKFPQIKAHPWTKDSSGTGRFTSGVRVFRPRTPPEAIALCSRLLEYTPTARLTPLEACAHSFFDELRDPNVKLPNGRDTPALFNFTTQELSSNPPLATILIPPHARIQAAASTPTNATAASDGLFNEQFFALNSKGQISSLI
Protocol: Compounds were tested for the ability to inhibit recombinant rabbit GSK-3β protein using the following protocol. The test compound was added to a reaction mixture containing Protein phosphatase inhibitor-2 (PPI-2) (Calbiochem) (45 ng), rabbit GSK-3β protein (New England Biolabs) (0.75 units) and ^33P-ATP (1 μCi) in 50 mM Tris-HCl (pH 8.0), 10 mM MgCl2, 0.1% BSA, 1 mM DTT and 100 μM Sodium Vanadate. The mixture was reacted for 90 minutes at 30° C. to allow phosphorylation of the PPI-2 protein and then the protein in the reaction was precipitated using 10% TCA. The precipitated protein was collected on filter plates (MultiScreen-DV/Millipore), which were subsequently washed. Finally, the radioactivity was quantified using a TopCount Scintillation Counter (Packard).

Compound | IC50 [1] | IC50 [2] | IC50 [3] | IC50 [4]
O=C1NC(=O)C(c2nn(CCCO)c3ccccc23)=C1c1cn(-c2cccnc2)c2ccccc12 [Compound 94, 3-[1-(3-hydroxypropyl)-1H-indazol-3-yl]-4-[1-(3-pyridinyl)-1H-indol-3-yl]-1H-pyrrole-2,5-dione] | 0.411 µM | 0.011 µM | 0.306 µM | 0.058 µM
Cn1cc(C2=C(c3nn(CCCN4CCOCC4)c4ccccc34)C(=O)NC2=O)c2cc(Cl)ccc21 [Compound 78, 3-(5-chloro-1-methyl-1H-indol-3-yl)-4-[1-[3-(4-morpholinyl)propyl]-1H-indazol-3-yl]-1H-pyrrole-2,5-dione] | 0.53 µM | 0.016 µM | 0.94 µM | 0.041 µM
C=Cn1cc(C2=C(c3nn(CCCN(C)C)c4ccccc34)C(=O)NC2=O)c2ccccc21 [Compound 3, 3-[1-[3-(dimethylamino)propyl]-1H-indazol-3-yl]-4-(1-ethenyl-1H-indol-3-yl)-1H-pyrrole-2,5-dione] | 0.323 µM | 0.023 µM | 0.248 µM | 0.049 µM
CCn1cc(C2=C(c3nn(CCCN(C)C)c4ccccc34)C(=O)NC2=O)c2cc(Cl)ccc21 [Compound 46, 3-(5-chloro-1-ethyl-1H-indol-3-yl)-4-[1-[3-(dimethylamino)propyl]-1H-indazol-3-yl]-1H-pyrrole-2,5-dione] | 0.123 µM | 0.005 µM | 0.308 µM | 0.01 µM
Cn1cc(C2=C(c3nn(CCCN4CCCC4)c4ccccc34)C(=O)NC2=O)c2cc(Cl)ccc21 [Compound 75, 3-(5-chloro-1-methyl-1H-indol-3-yl)-4-[1-[3-(1-pyrrolidinyl)propyl]-1H-indazol-3-yl]-1H-pyrrole-2,5-dione] | 0.175 µM | 0.01 µM | 0.204 µM | 0.033 µM
CN(CCO)CCCn1nc(C2=C(c3cn(-c4cccnc4)c4ccccc34)C(=O)NC2=O)c2ccccc21 [Compound 114, 3-[1-[3-[(2-hydroxyethyl)methylamino]propyl]-1H-indazol-3-yl]-4-[1-(3-pyridinyl)-1H-indol-3-yl]-1H-pyrrole-2,5-dione] | 0.038 µM | 0.004 µM | 0.047 µM | 0.155 µM
